Reference: patent publication US20230263822A1, “MODULATION OF FACTOR 11 EXPRESSION” (Ionis Pharmaceuticals, Inc., priority 2008, published 2023)

Columns and labels:
Factor 11 activity = assay: Factor 11 protein activity, F11 assay based on clotting time (Example 45); format: in vivo, cynomolgus monkeys
Description: (§1) Groups, each consisting of two male and three female monkeys, were injected subcutaneously with ISIS 416838, ISIS 416850, ISIS 416858, ISIS 416864, or ISIS 417002 in escalating doses. Antisense oligonucleotide was administered to the monkeys at 5 mg/kg three times per a week for week 1; 5 mg/kg twice per week for weeks 2 and 3; 10 mg/kg three times per week for week 4; 10 mg/kg twice per week for weeks 5 and 6; 25 mg/kg three times per week for week 7; and 25 mg/kg twice per week for weeks 8, 9, 10, 11, and 12. One control group, consisting of two male and three female monkeys, was injected subcutaneously with PBS according to the same dosing regimen. An additional experimental group, consisting of two male and three female monkeys, was injected subcutaneously with ISIS 416850 in a chronic, lower dose regimen. Antisense oligonucleotide was administered to the monkeys at 5 mg/kg three times per week for week 1; 5 mg/kg twice per week for week 2 and 3; 10 mg/kg three times per week for week 4; and 10 mg/kg twice per week for weeks 5 to 12. Body weights were measured weekly. Blood samples were collected 14 days and 5 days before the start of treatment and subsequently once per week for Factor 11 protein activity analysis in plasma, fibrinogen measurement, PT and aPTT measurements, bleeding times, and measurement of various hematologic factors. On day 85, the monkeys were euthanized by exsanguination while under deep anesthesia, and organs harvested for further analysis.
Blood samples were collected at various time points and Factor 11 proenzyme was measured using a F11 assay based on clotting time. Clotting times were determined in duplicate with a ST4 semi-automated coagulation instrument (Diagnostica Stago, NJ). Thirty μl of citrated sample plasma diluted 1/20 in HEPES-NaCl buffer with BSA was incubated with 30 μl aPTT reagent (Automated aPTT, Organon Technika, NC) and 30 μl of citrated plasma deficient of Factor 11 (George King Bio-Medical Inc.) at 37° C. for 5 min, followed by the addition of 30 μl of 25 mM CaCl2) to initiate clotting. Results were interpolated on a standard curve of serially diluted citrated control plasma.
Results are presented in Table 118 as percent inhibition of Factor 11 activity, relative to PBS control. The ISIS oligonucleotide, ISIS 416850, given with the chronic dose regimen is distinguished from the other oligonucleotides with an asterisk (*).

[1] = Kidney function, urine protein to creatinine ratio in cynomolgus monkeys (Example 45); format: in vivo
Description: as §1
To evaluate the impact of ISIS oligonucleotides on kidney function, urine samples were collected.

[2] = test system: IL-1β, IL-6, IFN-γ, TNF-α, IL-8, MIP-1α, MCP-1, MIP-1β, RANTES; assay: Cytokine and chemokine assays in cynomolgus monkeys (Example 45); format: in vivo; details: escalating dose regimen
Description: as §1
Blood samples obtained from the monkey groups treated with PBS, ISIS 416850 and ISIS 416858 administered in the escalating dose regimen were sent to Pierce Biotechnology (Woburn, Mass.) for measurement of chemokine and cytokine levels. Levels of IL-1β, IL-6, IFN-γ, and TNF-α were measured using the respective primate antibodies and levels of IL-8, MIP-1α, MCP-1, MIP-1β and RANTES were measured using the respective cross-reacting human antibodies. Measurements were taken 14 days before the start of treatment and on day 85, when the monkeys were euthanized.

[3] = day 15, escalating dose regimen
[4] = day 22, escalating dose regimen
[5] = day 29, escalating dose regimen
[6] = day 36, escalating dose regimen
[7] = day 43, escalating dose regimen
[8] = day 50, escalating dose regimen
[9] = day 57, escalating dose regimen
[10] = day 64, escalating dose regimen
[11] = day 71, escalating dose regimen
[12] = day 78, escalating dose regimen
[13] = day 85, escalating dose regimen
[14] = day −5, escalating dose regimen
[15] = day −14, escalating dose regimen
[16] = day −14 (before start of treatment)

Substance: ISIS 416838: MOE gapmer, nucleobases 1018 to 1042 of SEQ ID NO: 1 (Table 6) (antisense GCAACCGGGATGATGAGTGC; MOE gapmer, wing and gap sizes not given here)
- percent inhibition of Factor 11 activity, relative to PBS control (Factor 11 activity; day 8, escalating dose regimen): 3%
- percent inhibition of Factor 11 activity, relative to PBS control (Factor 11 activity; [3]): 4%
- percent inhibition of Factor 11 activity, relative to PBS control (Factor 11 activity; [4]): 5%
- percent inhibition of Factor 11 activity, relative to PBS control (Factor 11 activity; [5]): 8%
- percent inhibition of Factor 11 activity, relative to PBS control (Factor 11 activity; [6]): 11%
- percent inhibition of Factor 11 activity, relative to PBS control (Factor 11 activity; [7]): 5%
- percent inhibition of Factor 11 activity, relative to PBS control (Factor 11 activity; [8]): 8%
- percent inhibition of Factor 11 activity, relative to PBS control (Factor 11 activity; [9]): 10%
- percent inhibition of Factor 11 activity, relative to PBS control (Factor 11 activity; [10]): 11%
- percent inhibition of Factor 11 activity, relative to PBS control (Factor 11 activity; [11]): 12%
- percent inhibition of Factor 11 activity, relative to PBS control (Factor 11 activity; [12]): 10%
- percent inhibition of Factor 11 activity, relative to PBS control (Factor 11 activity; [13]): 10%
- percent inhibition of Factor 11 activity, relative to PBS control (Factor 11 activity; [14]): 0%
- percent inhibition of Factor 11 activity, relative to PBS control (Factor 11 activity; [15]): 0%
- urine protein to creatinine ratio ([1]; Day 80): 0.13
- urine protein to creatinine ratio ([1]; Day 84): 0.13

Substance: ISIS 416850: MOE gapmer, nucleobases 1275 to 1318 of SEQ ID NO: 1 (Table 8) (antisense TGCACAGTTTCTGGCAGGCC; MOE gapmer, wing and gap sizes not given here)
- percent inhibition of Factor 11 activity, relative to PBS control (Factor 11 activity; day 8, chronic dose regimen (*)): 6%
- percent inhibition of Factor 11 activity, relative to PBS control (Factor 11 activity; day 8, escalating dose regimen): 8%
- percent inhibition of Factor 11 activity, relative to PBS control (Factor 11 activity; day 15, chronic dose regimen (*)): 13%
- percent inhibition of Factor 11 activity, relative to PBS control (Factor 11 activity; [3]): 4%
- percent inhibition of Factor 11 activity, relative to PBS control (Factor 11 activity; day 22, chronic dose regimen (*)): 12%
- percent inhibition of Factor 11 activity, relative to PBS control (Factor 11 activity; [4]): 11%
- percent inhibition of Factor 11 activity, relative to PBS control (Factor 11 activity; day 29, chronic dose regimen (*)): 20%
- percent inhibition of Factor 11 activity, relative to PBS control (Factor 11 activity; [5]): 15%
- percent inhibition of Factor 11 activity, relative to PBS control (Factor 11 activity; day 36, chronic dose regimen (*)): 24%
- percent inhibition of Factor 11 activity, relative to PBS control (Factor 11 activity; [6]): 17%
- percent inhibition of Factor 11 activity, relative to PBS control (Factor 11 activity; day 43, chronic dose regimen (*)): 24%
- percent inhibition of Factor 11 activity, relative to PBS control (Factor 11 activity; [7]): 23%
- percent inhibition of Factor 11 activity, relative to PBS control (Factor 11 activity; day 50, chronic dose regimen (*)): 30%
- percent inhibition of Factor 11 activity, relative to PBS control (Factor 11 activity; [8]): 42%
- percent inhibition of Factor 11 activity, relative to PBS control (Factor 11 activity; [9]): 49%
- percent inhibition of Factor 11 activity, relative to PBS control (Factor 11 activity; [10]): 55%
- percent inhibition of Factor 11 activity, relative to PBS control (Factor 11 activity; [11]): 57%
- percent inhibition of Factor 11 activity, relative to PBS control (Factor 11 activity; [12]): 63%
- percent inhibition of Factor 11 activity, relative to PBS control (Factor 11 activity; [13]): 64%
- percent inhibition of Factor 11 activity, relative to PBS control (Factor 11 activity; day −5, chronic dose regimen (*)): 1%
- percent inhibition of Factor 11 activity, relative to PBS control (Factor 11 activity; [14]): 0%
- percent inhibition of Factor 11 activity, relative to PBS control (Factor 11 activity; day −14, chronic dose regimen (*)): 0%
- percent inhibition of Factor 11 activity, relative to PBS control (Factor 11 activity; [15]): 0%
- urine protein to creatinine ratio ([1]; Day 80): 0.09
- urine protein to creatinine ratio ([1]; Day 84): 0.12
- IFN-γ level ([2]; day 85): 18 pg/mL
- IL-1β level ([2]; day 85): 13 pg/mL
- IL-6 level ([2]; day 85): 17 pg/mL
- IL-8 level ([2]; day 85): 172 pg/mL
- MCP-1 level ([2]; day 85): 2330 pg/mL
- MIP-1α level ([2]; day 85): 41 pg/mL
- MIP-1β level ([2]; day 85): 216 pg/mL
- RANTES level ([2]; day 85): 83981 pg/mL
- TNF-α level ([2]; day 85): 27 pg/mL
- IFN-γ level [2, 16]: 126 pg/mL
- IL-1β level [2, 16]: 3 pg/mL
- IL-6 level [2, 16]: 30 pg/mL
- IL-8 level [2, 16]: 1659 pg/mL
- MCP-1 level [2, 16]: 1384 pg/mL
- MIP-1α level [2, 16]: 28 pg/mL
- MIP-1β level [2, 16]: 137 pg/mL
- RANTES level [2, 16]: 75335 pg/mL
- TNF-α level [2, 16]: 14 pg/mL
